Reference: publication PMC12197453 (Viruses, 2025)

Assays:
rJEV-EGFP [1] = assay: Inhibition of rJEV-EGFP replication in BHK-21 cells (green fluorescence); type: cell-based, Japanese encephalitis virus; details: 10 μM, 48 h post-treatment, vs DMSO
293T cells = assay: Cytotoxicity (Cell Counting Kit-8) in 293T cells; type: cell-based; details: 10 μM, 48 h
JEV-GFP replicon = assay: Inhibition of JEV-GFP replicon replication in transfected BHK-21 cells; type: cell-based, Japanese encephalitis virus; details: 48 h, BHK-21 transfectants; for NS1 gene expression of the JEV-GFP replicon (library screening): screen of 20 bioactive compounds, qRT-PCR
BHK-21 cells = assay: Cytotoxicity (Cell Counting Kit-8) in BHK-21 cells; type: cell-based; details: 10 μM, 48 h
rJEV-EGFP [2] = assay: Inhibition of rJEV-EGFP replication in A549 cells; type: cell-based, Japanese encephalitis virus; details: for intensities of green fluorescence produced by rJEV-EGFP replication: 10 μM, vs DMSO; for intensities of green fluorescence produced by rJEV-EGFP replication / levels of the JEV NS1 gene (qRT-PCR): 48 h post-treatment, A549 cells; for SI (Selectivity Index): SI = CC50/EC50, A549 cells; for levels of the JEV NS1 gene (qRT-PCR): different concentrations
A549 cells = assay: Cytotoxicity assay (Cell Counting Kit-8) in A549 cells; type: cell-based; details: 48 h; for cytotoxicity (cell viability): 10 μM; for CC50: Cell Counting Kit-8, read-out: CC50 (50% cytotoxic concentration)
rJEV-EGFP [3] = assay: Inhibition of rJEV-EGFP replication in 293T cells (green fluorescence); type: cell-based, Japanese encephalitis virus; details: 10 μM, 48 h post-treatment, vs DMSO
[4] = Cytotoxicity assay (Cell Counting Kit-8) in A549 cells; type: cell-based; details: human, Cell Counting Kit-8, read-out: CC50 (50% cytotoxic concentration)

SMILES | intensities of green fluorescence produced by rJEV-EGFP replication (rJEV-EGFP [1]) | cytotoxicity (cell viability) (293T cells) | intensity of green fluorescence of JEV-GFP replicon (JEV-GFP replicon; 10 μM, vs DMSO) | levels of the NS1 gene of JEV-GFP replicon (qRT-PCR) (JEV-GFP replicon; 10 μM, vs DMSO) | NS1 gene expression of the JEV-GFP replicon (library screening) (JEV-GFP replicon) | cytotoxicity (cell viability) (BHK-21 cells) | intensities of green fluorescence produced by rJEV-EGFP replication (rJEV-EGFP [2]) | SI (Selectivity Index) (rJEV-EGFP [2]) | levels of the JEV NS1 gene (qRT-PCR) (rJEV-EGFP [2]) | cytotoxicity (cell viability) (A549 cells) | CC50 (A549 cells) | intensities of green fluorescence produced by rJEV-EGFP replication (rJEV-EGFP [3]) | SI (Selectivity Index) (rJEV-EGFP [2]; listed as quinine) | CC50 at 48 h [4]
COc1cc(NC(C(=O)N2CCc3ccc(OC(F)(F)F)cc32)c2ccc(Cl)cc2)cc(OCCCC(=O)O)c1 (stereo not shown) [JNJ-A07] | remarkably reduced | no significant cytotoxicities | significantly reduced | reduced | higher inhibitory effect | no significant cytotoxicities | remarkably reduced | 2296.92 | significantly decreased | no significant cytotoxicities | 29.9 µM | remarkably reduced |  | 
C#C[C@@]1(O)[C@H](O)[C@@H](CO)O[C@H]1n1ccc2c(N)ncnc21 [NITD008] | remarkably reduced | no significant cytotoxicities |  | reduced | higher inhibitory effect | no significant cytotoxicities | remarkably reduced |  | significantly decreased | no significant cytotoxicities | 37.8 µM | remarkably reduced |  | 
C=C[C@H]1C[N@@]2CC[C@H]1C[C@H]2[C@H](O)c1ccnc2ccc(OC)cc12 [Quinine] | remarkably reduced | no significant cytotoxicities |  | reduced | higher inhibitory effect | no significant cytotoxicities | remarkably reduced | 282.47 | significantly decreased | no significant cytotoxicities |  | remarkably reduced | 334.16 | 45.8 µM
